Values of other authors in patent US11903950B2, “BCL-2 inhibitors” (Newave Pharmaceutical Inc., priority 2018, dated 2024).

Experiments:
circulating platelets = conditions: clinical trial, patients
[1] = system: xenograft models of small-cell lung cancer and acute lymphoblastic leukemia; conditions: oral administration, alone

In the case of `CC1(C)CCC(c2ccc(Cl)cc2)=C(CN2CCN(c3ccc(C(=O)NS(=O)(=O)c4ccc(N[C@H](CCN5CCOCC5)CSc5ccccc5)c(S(=O)(=O)C(F)(F)F)c4)cc3)CC2)C1` [ABT-263], the “number of circulating platelets” value (circulating platelets) is listed as “rapid, concentration-dependent decrease in the number of circulating platelets” and the tumor regression [1] is listed as “complete tumor regressions”.
